Results from patent US11479805B2, “Combinatorial single molecule analysis of chromatin” (The General Hospital Corporation, priority 2015, dated 2022).

Experiments:
nucleosomes from ESCs = assay: Time-lapse TIRF imaging of antibody binding and dissociation on nucleosomes from ESCs; set-up: species or system Mouse; conditions: images every 15 minutes, FIG. 7B-C
Procedure: FIG. 7A-7F. Time-lapse images detect repeated antibody binding and dissociation events. (A) Mono-nucleosomes were extracted from HEK293 cells, labeled and distributed on the surface as described in FIG. 1A. […] Shown are images taken at 15, 30 and 45 minutes after addition of antibodies. (B-F) Nucleosomes from ESCs were distributed on the surface and incubated with antibodies targeting H3K27me3 (B, D, F) or H3K4me3 (C, E). Time lapse images were taken every 15 minutes. A total of 10,000 individual binding events were analyzed for each antibody. (B-C) Number of binding events detected at each time point. Equilibrium of binding and dissociation of antibodies is achieved at 45 minutes for H3K27me3, and 75 minutes for H3K4me3. Later images show mild reduction in signal due to photo bleaching. (D-E) For each nucleosome, the number of binding events by antibody was calculated in a total of 8 images taken during the time course of the experiment (30-135 minutes). Graph depicts a histogram of the number of images in which each nucleosome is bound by the antibody. Due to repeated binding and dissociation events, most of the nucleosomes are bound more than once. […]
(§1) All experiments were performed on a total internal reflection (TIRF) microscope with two lasers, 532 nm/75 mW and 640 nm/40 mW, for fluorescence excitation (Compass 215M, Cube-40C, Coherent). […]

[1] = system: control peptides and singly modified peptides; assay: Antibody specificity peptide array (dot-blot assay); assay type: binding; conditions: FIG. 9
Procedure: FIG. 9A-9B. Peptide array confirms high antibody specificity (A-B) Reactivity of H3K27me3 antibody (A) or H3K4me3 antibody (B) with control peptides and singly modified peptides.
To test for antibody specificity, Applicants used a peptide array with unlabeled antibodies (the same lots of antibodies that were labeled by Cell Signaling and used for the imaging) according to the following protocol: array is immersed in 4 ml blocking solution (TBST containing 5% non-fat dried milk) for 4 hours at room temperature. Next, array is washed 3 times with TBST, and primary antibody is added (diluted in TBST 1:25,000). Antibody is incubated over night at 4° C. on a rotor. Then the array is washed 3 times in TBST and the secondary antibody (Active Motif, 100612) is added for 1 hour at room temperature. Array is washed again 3 times in TBST and the signal is detected by FlourChemQ.

[2] = system: recombinant unmodified nucleosomes; assay: Single-molecule antibody binding to recombinant unmodified nucleosomes; conditions: monitored over time; FIG. 8A
Procedure: FIG. 8A-8B. Low background and high specificity of antibody binding. (A) Recombinant unmodified nucleosomes were prepared as previously described (91), and then ligated to biotinylated, fluorescent adaptors as in FIG. 1A. Binding of fluorescently-labeled H3K27me3 antibodies was monitored over time. […] For comparison, also shown are images of H3K27me3 antibody binding to nucleosomes prepared from HEK293 cells. (B) Western-blot analysis of labeled H3K27me3 peptide (TAMRA, green) bound by H3K27me3 antibodies (Alexa647, red). Fluorescent signal on membrane was visualized using a Typhoon trio+imager (Amersham Biosciences).
Applicants imaged millions of nucleosomes and decoded their modification state. Images are analyzed with Cell Profiler software. […] In contrast, when Applicants treated cells with histone deacetylase inhibitors (HDACi), the fraction of acetylated nucleosomes increased to 7% (FIG. 1C, 1D). Importantly, when Applicants repeated the analysis with recombinant unmodified nucleosomes, just 0.1% of nucleosomes scored (FIG. 1E, 8A). […]
as §1

Question: “H3K27me3 antibody: Tri-Methyl-Histone H3 (Lys27) (C36B11) Rabbit mAb (Alexa Fluor 647 Conjugate), Cell Signaling #12158” was tested. Which “time at which equilibrium of binding and dissociation of antibodies is achieved” value (nucleosomes from ESCs) did it give?
Answer: Its value is 45 min.

Question: And the “reactivity with control peptides and singly modified peptides (target specificity)” value [1]?
Answer: Its value is “very high target specificity and low background”.

Question: And the “binding events on recombinant unmodified nucleosomes” value [2]?
Answer: The value was “Very few binding events were detected”.
